From patent US9090596B2, “Disubstituted 3,4-diamino-3-cyclobutene-1,2-dione compounds for use in the treatment of chemokine-mediated pathologies” (GALDERMA RESEARCH & DEVELOPMENT, priority 2011, dated 2015)

Key:
CXCR1 receptor = CXCR1 receptor (Homo sapiens (Human), UniProt P25024); assay: β-arrestin 2 recruitment test, U2OS hCXCR1 β-arrestin cells stimulated with CXCL8; format: cell-based; conditions: CXCL8 stimulation
Procedure: (§1) The in vitro affinity of the compounds of the present invention for the CXCR1 and CXCR2 receptors was determined on a functional test of the β-arrestin recruitment type after receptor activation.
(§2) β-Arrestin Recruitment Assay:
(§3) “PathHunter HEK293-CXCR2” or “U2OS hCXCR1 β-arrestin” cells (DiscoveRx Corporation) were seeded overnight at 10 000 cells/well (384-well format) in 20 μl of Opti MEM I medium. A preincubation with the antagonist or the vehicle for 30 min at 37° C. and 5% CO2 was followed by 60 minutes of stimulation with CXCL8 at 37° C. and 5% CO2. The cells were then placed at ambient temperature for 30 minutes. The PathHunter detection reagent (DiscoveRx Corporation) was added. […] The data were analyzed by means of a non-linear curve procedure using the XLFit4 exploitation software (IDBS) and the IC50 values were determined.

CXCR2 receptor = CXCR2 receptor (Homo sapiens (Human), UniProt P25025); assay: β-arrestin 2 recruitment test, PathHunter HEK293-CXCR2 cells stimulated with CXCL8; format: cell-based; conditions: CXCL8 stimulation
Procedure: as §1, §2, §3

CCR4 = CCR4 (Homo sapiens (Human), UniProt P51679); assay: Receptor profiling: calcium flux (FLIPR TETRA) on Chem-1 cells expressing chemokine receptor; format: cell-based; design: key to IC50 CCR4: IA: Inactive; conditions: antagonist activity, reference agonist at AC80
Procedure: (§4) Measurement of Calcium Flux on Cells:
(§5) The experiments were carried out on the FLIPR TETRA® platform from Molecular Devices. After the basal level had been read, the compounds were added to the cells expressing the chemokine receptor of interest and the agonist activity was read at 10 seconds.
(§6) Each cell line expressing a chemokine receptor was established on the basis of the Chem-1 cell stably expressing the recombinant form of the chemokine receptor and also an associated G protein, with the aim of coupling the receptor to the calcium signalling pathway. 21 receptors belonging to the chemokine receptor family (CCRs and CXCRs) were analyzed. All the CXCR2 antagonists were tested in a dose-dependent manner and the concentration corresponding to 50% inhibition of the response was determined (IC50).

CXCR3 = CXCR3 (Homo sapiens (Human), UniProt P49682); assay: as above; format: cell-based; conditions: antagonist activity, reference agonist at AC80
Procedure: as §4, §5, §6

[1] = Metabolic stabilities in hepatic microsomes; format: in vitro ADME; conditions: pH 7.4; hepatic microsomes 0.5 mg/ml, compound 1 μM; read-out: Half-life time
Procedure: Hepatic microsomes (Becton Dickinson) were incubated at a protein concentration of 0.5 mg/ml in the reaction medium.
The reaction medium of the microsomes was composed of phosphate buffer, pH: 7.4 at 100 mM, of MgCl2 at 100 mM (50/50), of an […] composed of a mixture of […] (NADP) and of glucose-6-phosphate (G6P) at 1 mg/ml and of glucose-6-phosphate dehydroganase (G6PDH) at 4 U/ml. The compounds were tested at 1 μM (0.1% DMSO).
The samples of incubation medium after addition of the microsomes were taken at times 5, 10, 15, 30 and 60 minutes. At each time, the metabolic reaction was stopped by adding methanol (1 volume incubation medium/3 volumes of methanol). The disappearance of the parent product was measured by LC/MS/MS analysis. The time for which 50% of parent Product disappeared (T½) was calculated from the kinetics of disappearance of the parent product as a function of time.

[2] = Metabolic stabilities in hepatocytes; format: in vitro ADME; conditions: human hepatocytes, compound 1 μM; read-out: Half-life time
Procedure: The human hepatocytes were supplied by Biopredic in 24-well plates.
At each time, the metabolic reaction was stopped by adding methanol (1 volume incubation medium/3 volumes of methanol). The disappearance of the parent product was measured by LC/MS/MS analysis. The time for which 50% (T½) of parent product disappeared was calculated from the kinetics of disappearance of the parent product as a function of time.

[3] = tested on: receptors of CXCR1 and CXCR2 type; conditions: pseudo-irreversible dissociation, JPET 322:477-485, 2007; cited from earlier work

Sequence of CXCR2 receptor (P25025 whole entry): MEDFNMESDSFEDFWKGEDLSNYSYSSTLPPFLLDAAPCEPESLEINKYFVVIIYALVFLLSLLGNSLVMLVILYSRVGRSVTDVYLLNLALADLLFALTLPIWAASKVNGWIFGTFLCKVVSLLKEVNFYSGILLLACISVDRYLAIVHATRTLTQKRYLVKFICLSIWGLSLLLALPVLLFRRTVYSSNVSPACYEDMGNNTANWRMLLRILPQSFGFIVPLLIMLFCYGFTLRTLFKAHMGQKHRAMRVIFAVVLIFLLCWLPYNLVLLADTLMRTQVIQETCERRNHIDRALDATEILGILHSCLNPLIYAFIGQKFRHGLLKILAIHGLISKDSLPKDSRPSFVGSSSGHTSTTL
Sequence of CXCR3 (P49682 whole entry): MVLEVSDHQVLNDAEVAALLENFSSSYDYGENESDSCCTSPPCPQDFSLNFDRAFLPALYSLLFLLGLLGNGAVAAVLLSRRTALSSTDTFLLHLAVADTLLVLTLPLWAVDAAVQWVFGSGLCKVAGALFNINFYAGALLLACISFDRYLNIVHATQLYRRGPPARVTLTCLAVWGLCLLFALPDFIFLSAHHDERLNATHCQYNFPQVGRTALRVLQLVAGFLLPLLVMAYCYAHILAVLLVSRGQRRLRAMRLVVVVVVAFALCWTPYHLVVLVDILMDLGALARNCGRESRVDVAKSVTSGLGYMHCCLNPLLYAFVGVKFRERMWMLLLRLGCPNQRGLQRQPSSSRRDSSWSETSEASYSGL
Sequence of CXCR1 receptor (P25024 whole entry): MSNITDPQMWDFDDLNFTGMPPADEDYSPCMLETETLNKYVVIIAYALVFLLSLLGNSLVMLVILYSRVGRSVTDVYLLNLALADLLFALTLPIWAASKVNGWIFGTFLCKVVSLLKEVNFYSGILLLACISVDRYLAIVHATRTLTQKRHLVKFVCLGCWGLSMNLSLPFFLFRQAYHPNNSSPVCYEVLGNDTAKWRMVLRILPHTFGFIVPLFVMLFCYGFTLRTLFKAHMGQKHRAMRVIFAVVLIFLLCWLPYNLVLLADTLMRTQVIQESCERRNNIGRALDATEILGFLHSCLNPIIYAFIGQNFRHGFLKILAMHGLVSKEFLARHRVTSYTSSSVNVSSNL
Sequence of CCR4 (P51679 whole entry): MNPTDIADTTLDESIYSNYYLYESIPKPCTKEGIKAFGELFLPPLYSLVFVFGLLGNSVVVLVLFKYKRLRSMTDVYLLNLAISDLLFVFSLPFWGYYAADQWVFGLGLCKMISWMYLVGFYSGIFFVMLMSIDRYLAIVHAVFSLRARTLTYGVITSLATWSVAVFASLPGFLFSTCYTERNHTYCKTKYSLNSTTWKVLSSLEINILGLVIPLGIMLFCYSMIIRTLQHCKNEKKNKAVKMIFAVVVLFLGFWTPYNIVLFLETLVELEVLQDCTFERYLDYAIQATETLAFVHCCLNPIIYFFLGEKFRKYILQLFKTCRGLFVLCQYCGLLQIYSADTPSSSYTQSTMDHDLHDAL

IC50 (CXCR1 receptor)	IC50 (CXCR2 receptor)	IC50 (CXCR3)	SMILES	also measured
0.604 µM	0.037 µM	0.24 µM	COC(=O)[C@H]1CCCN1C(=O)c1cccc(Nc2c(N[C@@H](c3ccc(C)o3)C3(C)COC3)c(=O)c2=O)c1O [Example 8, methyl (R)-1-[2-hydroxy-3-(2-{[(R)-(5-methylfuran-2-yl)-(3-methyloxetan-3-yl)methyl]amino}-3,4-dioxocyclobut-1-enylamino)benzoyl]pyrrolidine-2-carboxylate]	IC50 CCR4 (CCR4): IA
1.54 µM	0.244 µM		Cc1cc(C(Nc2c(Nc3cccc(C(=O)N(C)C)c3O)c(=O)c2=O)C2(C)COC2)oc1C (stereo not drawn) [Example 27, 3-(2-{[(4,5-dimethylfuran-2-yl)-(3-methyloxetan-3-yl)methyl]amino}-3,4-dioxocyclobut-1-enylamino)-2-hydroxy-N,N-dimethylbenzamide]	melting point: 207 to 209 °C
		0.7 µM	Cc1ccc([C@H](Nc2c(Nc3cccc(C(=O)N(C)C)c3O)c(=O)c2=O)C2(C)COC2)o1 [Example 50, 2-hydroxy-N,N-dimethyl-3-(2-{[((R)-5-methylfuran-2-yl)-(3-methyloxetan-3-yl)methyl]amino}-3,4-dioxocyclobut-1-enylamino)benzamide]	
0.115 µM	0.03 µM	0.92 µM	Cc1ccc([C@H](Nc2c(Nc3ccc(Cl)c(S(=O)(=O)N4CCN(C)CC4)c3O)c(=O)c2=O)C2(C)COC2)o1 [Example 53, 3-[4-chloro-2-hydroxy-3-(4-methylpiperazine-1-sulfonyl)phenylamino]-4-{[(R)-(5-methylfuran-2-yl)-(3-methyloxetan-3-yl)methyl]amino}cyclobut-3-ene-1,2-dione]	IC50 (CCR4): 0.45 µM; half-life at 1 μM [1]: 47 min; half-life at 1 μM [2]: 186 min
			CC[C@@H](Nc1c(Nc2cccc(C(=O)N(C)C)c2O)c(=O)c1=O)c1ccc(C)o1 [SCH-527123]	dissociation time [3]: about 22 h

SMILES	IC50 (CXCR1 receptor)	IC50 (CXCR2 receptor)	IC50 (CXCR3)	also measured
Cc1ccc(C(Nc2c(Nc3cccc(S(=O)(=O)N(C)C)c3O)c(=O)c2=O)C2(C)COC2)o1 (stereo not drawn) [Example 21, 2-hydroxy-N,N-dimethyl-3-(2-{[(5-methylfuran-2-yl)-(3-methyloxetan-3-yl)methyl]amino}-3,4-dioxocyclobut-1-enylamino)benzenesulfonamide]	1.44 µM	0.257 µM		half-life at 1 μM [1]: 7.7 min
Cc1ccc(C(Nc2c(Nc3cccc(C(=O)N4CCC(O)C4)c3)c(=O)c2=O)C2(C)COC2)o1 (stereo not drawn) [Example 31, 3-[3-(3-hydroxypyrrolidine-1-carbonyl)phenylamino]-4-{[(5-methylfuran-2-yl)-(3-methyloxetan-3-yl)methyl]amino}cyclobut-3-ene-1,2-dione]	3.53 µM	0.716 µM		melting point: 242 to 245 °C
